Where “and” joins values, the source holds several entries; their conditions need not be identical. Equal entries are not always repeated.
System: A498 complex spheroid viability
Experiment: Anticancer human tumor A498 cell line growth inhibition;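 further: spheroids exposed to agents for seven days before readout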;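 on viability, T/C: 100% = DMSO vehicle-treated spheroids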
Details: for viability, T/C: stronger effect = lower value
Summary of the method: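 Complex spheroids of tumor cells with HUVEC and human MSCs, exposed to iadademstat combined with other agents. Each agent tested in half-log steps from near clinical Cmax (else 10 microM top), DMSO ≤0.25%.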

[1] = curve of first compound, second compound 0.1 µM
[2] = curve of first compound, second compound 0.316 µM
[3] = curve of first compound, second compound 1 µM
[4] = curve of first compound, second compound 3.16 µM
[5] = curve of first compound, second compound 10 µM
[6] = second compound 0.1 µM, first compound 0.00949 µM
[7] = second compound 0.1 µM, first compound 0.03 µM
[8] = second compound 0.1 µM, first compound 0.0949 µM
[9] = second compound 0.1 µM, first compound 0.3 µM
[10] = second compound 0.316 µM, first compound 0.00949 µM
[11] = second compound 0.316 µM, first compound 0.03 µM
[12] = second compound 0.316 µM, first compound 0.0949 µM
[13] = second compound 0.316 µM, first compound 0.3 µM
[14] = second compound 1 µM, first compound 0.00949 µM
[15] = second compound 1 µM, first compound 0.03 µM
[16] = second compound 1 µM, first compound 0.0949 µM
[17] = second compound 1 µM, first compound 0.3 µM
[18] = second compound 3.16 µM, first compound 0.00949 µM
[19] = second compound 3.16 µM, first compound 0.03 µM
[20] = second compound 3.16 µM, first compound 0.0949 µM
[21] = second compound 3.16 µM, first compound 0.3 µM
[22] = second compound 10 µM, first compound 0.00949 µM
[23] = second compound 10 µM, first compound 0.03 µM
[24] = second compound 10 µM, first compound 0.0949 µM
[25] = second compound 10 µM, first compound 0.3 µM
[26] = second compound 0.1 µM, first compound 0.0316 µM
[27] = second compound 0.1 µM, first compound 0.1 µM
[28] = second compound 0.1 µM, first compound 0.316 µM
[29] = second compound 0.1 µM, first compound 1 µM
[30] = second compound 0.316 µM, first compound 0.0316 µM
[31] = second compound 0.316 µM, first compound 0.1 µM
[32] = second compound 0.316 µM, first compound 0.316 µM
[33] = second compound 0.316 µM, first compound 1 µM
[34] = second compound 1 µM, first compound 0.0316 µM
[35] = second compound 1 µM, first compound 0.1 µM
[36] = second compound 1 µM, first compound 0.316 µM
[37] = second compound 1 µM, first compound 1 µM
[38] = second compound 3.16 µM, first compound 0.0316 µM
[39] = second compound 3.16 µM, first compound 0.1 µM
[40] = second compound 3.16 µM, first compound 0.316 µM
[41] = second compound 3.16 µM, first compound 1 µM
[42] = second compound 10 µM, first compound 0.0316 µM
[43] = second compound 10 µM, first compound 0.1 µM
[44] = second compound 10 µM, first compound 0.316 µM
[45] = second compound 10 µM, first compound 1 µM

Molecule Nc1ccccc1NC(=O)c1ccc(CNC(=O)OCc2cccnc2)cc1 + NC1CC1c1ccc(-c2cccc(O)c2)cc1 has an IC50 [1] of 357 nM, an IC50 [2] of 333 nM and an IC50 [3] of 284 nM. The IC50 [4] was 362 nM, the IC50 [5] was 266 nM and the viability, T/C [6] was 89.5%. It also gave a viability, T/C [7] of 88%, a viability, T/C [8] of 72.6% and a viability, T/C [9] of 59.2%. For the same molecule, the viability, T/C (second compound 0.1 µM, first compound 0.949 µM) was 19.5%, the viability, T/C (second compound 0.1 µM, first compound 3 µM) was 1.7% and the viability, T/C [10] was 93.1%. It also gave a viability, T/C [11] of 95.4%, a viability, T/C [12] of 84.1% and a viability, T/C [13] of 50.6%. For the same molecule, the viability, T/C (second compound 0.316 µM, first compound 0.949 µM) was 21.1%, the viability, T/C (second compound 0.316 µM, first compound 3 µM) was 1.7% and the viability, T/C [14] was 88.3%. For the same molecule, the viability, T/C [15] was 89.3%, the viability, T/C [16] was 77.7% and the viability, T/C [17] was 46%. The viability, T/C (second compound 1 µM, first compound 0.949 µM) was 20.6%, the viability, T/C (second compound 1 µM, first compound 3 µM) was 1.74% and the viability, T/C [18] was 81%. For the same molecule, the viability, T/C [19] was 87.5%, the viability, T/C [20] was 78.2% and the viability, T/C [21] was 55.7%. The viability, T/C (second compound 3.16 µM, first compound 0.949 µM) was 19.2%, the viability, T/C (second compound 3.16 µM, first compound 3 µM) was 2.01% and the viability, T/C [22] was 86.2%. It also gave a viability, T/C [23] of 78.6%, a viability, T/C [24] of 70.7% and a viability, T/C [25] of 48.1%. It also gave a viability, T/C (second compound 10 µM, first compound 0.949 µM) of 19.4% and a viability, T/C (second compound 10 µM, first compound 3 µM) of 1.69%.
With NC1CC1c1ccc(-c2cccc(O)c2)cc1 (stereo unspecified) the viability, T/C (compound 0.316 µM) was 104% [middle of 25 runs], the viability, T/C (compound 10 µM) was 94.1% [middle of 25 runs] and the IC50 (compound alone, run of 12/07/2021) was over 10000 nM.
CC(C)CC(NC(=O)CNC(=O)c1cc(Cl)ccc1Cl)B1OC(=O)CC(CC(=O)O)(C(=O)O)O1 (stereo unspecified) was tested, and the viability, T/C (compound 0.000316 µM) was 102% and 107%, the viability, T/C (compound 0.001 µM) was 106% and 107% and the viability, T/C (compound 0.00316 µM) was 69.4% and 75.4%. For the same molecule, the viability, T/C (compound 0.01 µM) was 24.7% and 21.5%, the viability, T/C (compound 0.0316 µM) was 5.96% and 6.51% and the viability, T/C (compound 0.1 µM) was 2.46% and 1.92%. For the same molecule, the IC50 (curve of compound) was 5.29 nM and 5.46 nM.
Work on CC1COCCN1c1cc(-c2ccnn2C)c2ccnc(-c3ccn[nH]3)c2n1 (stereo unspecified) + NC1CC1c1ccc(-c2cccc(O)c2)cc1 yielded an IC50 [1] of 30.9 nM, an IC50 [2] of 29.8 nM and an IC50 [3] of 36.8 nM. It also gave an IC50 [4] of 28.4 nM, an IC50 [5] of 31.5 nM and a viability, T/C (second compound 0.1 µM, first compound 0.00316 µM) of 104%. It also gave a viability, T/C (second compound 0.1 µM, first compound 0.01 µM) of 88.1%, a viability, T/C [26] of 48.2% and a viability, T/C [27] of 23.6%. It also gave a viability, T/C [28] of 16.9%, a viability, T/C [29] of 11.8% and a viability, T/C (second compound 0.316 µM, first compound 0.00316 µM) of 108%. For the same molecule, the viability, T/C (second compound 0.316 µM, first compound 0.01 µM) was 94%, the viability, T/C [30] was 45.8% and the viability, T/C [31] was 25.3%. The viability, T/C [32] was 18.1%, the viability, T/C [33] was 13% and the viability, T/C (second compound 1 µM, first compound 0.00316 µM) was 105%. The viability, T/C (second compound 1 µM, first compound 0.01 µM) was 87%, the viability, T/C [34] was 55.5% and the viability, T/C [35] was 22.8%. For the same molecule, the viability, T/C [36] was 17.7%, the viability, T/C [37] was 12.3% and the viability, T/C (second compound 3.16 µM, first compound 0.00316 µM) was 109%. For the same molecule, the viability, T/C (second compound 3.16 µM, first compound 0.01 µM) was 85.5%, the viability, T/C [38] was 45.8% and the viability, T/C [39] was 23.3%. The viability, T/C [40] was 15.6%, the viability, T/C [41] was 12.9% and the viability, T/C (second compound 10 µM, first compound 0.00316 µM) was 91.9%. The viability, T/C (second compound 10 µM, first compound 0.01 µM) was 80.3%, the viability, T/C [42] was 49% and the viability, T/C [43] was 24.8%. For the same molecule, the viability, T/C [44] was 16.3% and the viability, T/C [45] was 11.4%.
With CC1COCCN1c1cc(C2(S(C)(=N)=O)CC2)nc(-c2ccnc3[nH]ccc23)n1 (stereo unspecified) + NC1CC1c1ccc(-c2cccc(O)c2)cc1 the IC50 [1] was 409 nM, the IC50 [2] was 509 nM and the IC50 [3] was 552 nM. The IC50 [4] was 503 nM, the IC50 [5] was 539 nM and the viability, T/C [26] was 92%. The viability, T/C [27] was 85.2%, the viability, T/C [28] was 55.2% and the viability, T/C [29] was 28%. For the same molecule, the viability, T/C (second compound 0.1 µM, first compound 3.16 µM) was 16.1%, the viability, T/C (second compound 0.1 µM, first compound 10 µM) was 11.5% and the viability, T/C [30] was 97.8%. The viability, T/C [31] was 96.8%, the viability, T/C [32] was 68.4% and the viability, T/C [33] was 23.9%. For the same molecule, the viability, T/C (second compound 0.316 µM, first compound 3.16 µM) was 16.7%, the viability, T/C (second compound 0.316 µM, first compound 10 µM) was 15.6% and the viability, T/C [34] was 86.7%. The viability, T/C [35] was 94%, the viability, T/C [36] was 69.9% and the viability, T/C [37] was 28%. For the same molecule, the viability, T/C (second compound 1 µM, first compound 3.16 µM) was 15.1%, the viability, T/C (second compound 1 µM, first compound 10 µM) was 10.6% and the viability, T/C [38] was 85.2%. For the same molecule, the viability, T/C [39] was 87.9%, the viability, T/C [40] was 63.9% and the viability, T/C [41] was 28.1%. It also gave a viability, T/C (second compound 3.16 µM, first compound 3.16 µM) of 16.8%, a viability, T/C (second compound 3.16 µM, first compound 10 µM) of 11.2% and a viability, T/C [42] of 89.7%. It also gave a viability, T/C [43] of 84.8%, a viability, T/C [44] of 63% and a viability, T/C [45] of 34%. For the same molecule, the viability, T/C (second compound 10 µM, first compound 3.16 µM) was 17.8% and the viability, T/C (second compound 10 µM, first compound 10 µM) was 10.1%.
CCc1c2c(nc3ccc(O)cc13)-c1cc3c(c(=O)n1C2)COC(=O)[C@]3(O)CC + NC1CCC(NC2CC2c2ccccc2)CC1 gave an IC50 [1] of under 0.949 nM, an IC50 [2] of under 0.949 nM and an IC50 [3] of under 0.949 nM. It also gave an IC50 [4] of under 0.949 nM, an IC50 [5] of under 0.949 nM and a viability, T/C (second compound 0.1 µM, first compound 0.000949 µM) of 44.1%. For the same molecule, the viability, T/C (second compound 0.1 µM, first compound 0.003 µM) was 34.7%, the viability, T/C [6] was 26.7% and the viability, T/C [7] was 3.44%. For the same molecule, the viability, T/C [8] was 0.09%, the viability, T/C [9] was 0.11% and the viability, T/C (second compound 0.316 µM, first compound 0.000949 µM) was 46%. For the same molecule, the viability, T/C (second compound 0.316 µM, first compound 0.003 µM) was 33%, the viability, T/C [10] was 26.4% and the viability, T/C [11] was 3.19%. For the same molecule, the viability, T/C [12] was 0.19%, the viability, T/C [13] was 0.12% and the viability, T/C (second compound 1 µM, first compound 0.000949 µM) was 47.1%. The viability, T/C (second compound 1 µM, first compound 0.003 µM) was 37.2%, the viability, T/C [14] was 25.6% and the viability, T/C [15] was 3.37%. The viability, T/C [16] was 0.22%, the viability, T/C [17] was 0.47% and the viability, T/C (second compound 3.16 µM, first compound 0.000949 µM) was 44.5%. It also gave a viability, T/C (second compound 3.16 µM, first compound 0.003 µM) of 34.5%, a viability, T/C [18] of 27.7% and a viability, T/C [19] of 1.91%. It also gave a viability, T/C [20] of 0.05%, a viability, T/C [21] of 0.11% and a viability, T/C (second compound 10 µM, first compound 0.000949 µM) of 42.5%. The viability, T/C (second compound 10 µM, first compound 0.003 µM) was 31%, the viability, T/C [22] was 26% and the viability, T/C [23] was 4.35%. The viability, T/C [24] was 0.12% and the viability, T/C [25] was 0.17%.
For NC1CCC(NC2CC2c2ccccc2)CC1 (stereo unspecified), the viability, T/C (compound 0.1 µM) was 86.8% [middle of 25 runs], the viability, T/C (compound 0.316 µM) was 85.2% and 90.6% and the viability, T/C (compound 1 µM) was 86% [middle of 25 runs]. The viability, T/C (compound 3.16 µM) was 84.7% [middle of 25 runs], the viability, T/C (compound 10 µM) was 75.1% [middle of 23 runs] and the IC50 (compound alone, run of 11/29/2021) was over 10000 nM.

From PubChem BioAssay AID1918947 (Molecular Pharmacology Branch, DTP, NCI, 2023)
